Measurements from ChEMBL document CHEMBL1125884, “Synthesis and biochemical studies of 16- or 19-substituted androst-4-enes as aromatase inhibitors” (J Med Chem, 1991).

Assays:
[1] = target: T1, Aromatase (Homo sapiens, UniProt P11511); assay: Binding affinity for human placental microsome cytochrome P450 19A1 with 1 uM [1-beta-3H]-androstenedione
T1 sequence (P11511 whole entry): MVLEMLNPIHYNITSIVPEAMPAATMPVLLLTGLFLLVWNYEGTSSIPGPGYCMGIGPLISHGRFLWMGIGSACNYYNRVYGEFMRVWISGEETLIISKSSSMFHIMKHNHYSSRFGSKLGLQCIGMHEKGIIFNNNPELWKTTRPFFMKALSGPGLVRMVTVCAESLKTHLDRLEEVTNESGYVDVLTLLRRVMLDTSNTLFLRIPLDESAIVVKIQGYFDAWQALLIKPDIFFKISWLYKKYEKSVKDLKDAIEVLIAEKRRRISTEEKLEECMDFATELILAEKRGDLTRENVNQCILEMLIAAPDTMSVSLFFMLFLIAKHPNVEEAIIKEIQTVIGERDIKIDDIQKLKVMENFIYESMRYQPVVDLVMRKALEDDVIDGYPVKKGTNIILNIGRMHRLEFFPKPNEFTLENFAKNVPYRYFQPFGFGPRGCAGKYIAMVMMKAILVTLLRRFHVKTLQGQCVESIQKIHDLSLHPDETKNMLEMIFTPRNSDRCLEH

[2] = target: T1, Aromatase
Description: Inhibition of 1 uM [1-beta-3H]-androstenedione binding to human placental microsome Cytochrome P450 19A1

SMILES | Ki [1] | IC50 [2]
C[C@]12CC[C@H]3[C@@H](CCC4=CCCC[C@@]43CO)[C@@H]1CCC2=O | 0.013 µM | 0.27 µM
C[C@]12CC[C@H]3[C@@H](CCC4=CCCC[C@@]43C(F)F)[C@@H]1CC[C@@H]2O |  | 26 µM
CC(=O)OCC12CCCC=C1CCC1C2CCC2(C)C(OC(C)=O)CCC12 (centres undefined) |  | 38 µM
CC12CCCC=C1CCC1C2CCC2(C)C(O)CCC12 (centres undefined) | 0.83 µM | 7.3 µM
CC12CCC3C(CCC4=CCCCC43CO)C1CCC2O (centres undefined) | 0.17 µM | 2.3 µM
CC(=O)OCC12CCCC=C1CCC1C2CCC2(C)C(O)CCC12 (centres undefined) |  | 44 µM
CC12CCC3C(CCC4=CCCCC43C)C1C[C@H](Br)C2=O (some centres undefined) | 0.455 µM | 5.9 µM
CC(=O)OC1CCC2C3CCC4=CCCCC4(CO)C3CCC12C (centres undefined) |  | 100 µM
C#CC(O)C12CCCC=C1CCC1C3CCC(=O)C3(C)CCC12 (centres undefined) | 7.75 µM | 62 µM
CC12CCC3C(CCC4=CCCCC43C)C1C[C@@H](Br)C2=O (some centres undefined) | 0.228 µM | 4.1 µM
CC12CCC3C(CCC4=CCCCC43C(F)F)C1CCC2=O (centres undefined) | 0.443 µM | 1.2 µM
C[C@]12CCC(=O)C(O)=C1CC[C@@H]1[C@@H]2CC[C@]2(C)C(=O)CC[C@@H]12 [FORMESTANE] |  | 0.41 µM
